Patent US12091409B2, “Ether linked triazoles as NRF2 activators” (ASTEX THERAPEUTICS LIMITED, priority 2016, dated 2024)

tested on: NQO1 specific enzyme activity in BEAS-2B cells (marker for NRF2 activation); assay: BEAS-2B NQO1 MTT Assay; assay type: cell-based; conditions: Homo sapiens, BEAS-2B, 48 h, NQO1 specific activity induction, 48 hours with compound
Excerpt: NAD(P)H:quinone oxidoreductase 1 (NQO1), also called DT diaphorase, is a homodimeric FAD-containing enzyme that catalyzes obligatory NAD(P)H-dependent two-electron reductions of quinones and protects cells against the toxic and neoplastic effects of free radicals and reactive oxygen species arising from one-electron reductions. The transcription of NQO1 is finely regulated by NRF2, and thus NQO1 activity is a good marker for NRF2 activation. On day one, frozen BEAS-2B cells (ATCC) were thawed in a water bath, counted, and re-suspended at a concentration of 250,000 cells/mL. Fifty microliters of cells were plated in 384 well black clear-bottomed plates. Plates were incubated at 37° C., 5% CO2 overnight. On day two, plates were centrifuged and 50 nL of compound or controls were added to the cells. Plates were then incubated at 37° C., 5% CO2 for 48 hours. On day four, medium was aspirated from the plate and crude cell lysates were made by adding 13 uL of 1× Cell Signaling Technologies lysis buffer with 1 Complete, Mini, EDTA-free Protease Inhibitor Tablet (Roche) for each 10 mL of lysis buffer. After lysis plates were incubated for 20 minutes at room temperature. Two microliters of lysate were removed for use in Cell Titer Glo assay (Promega) and MTT cocktail was prepared (Prochaska et. al. 1998) for measurement of NQO1 activity. Fifty microliters of MTT cocktail was added to each well, plate was centrifuged, and analyzed on an Envision plate reader (Perkin Elmer) using Absorbance 570 nm label for 30 minutes. Product formation was measured kinetically and the pEC50 of NQO1 specific activity induction was calculated by plotting the change in absorbance (Delta OD/min) versus the log of compound concentration followed by 3-parameter fitting.
pEC50 is the negative log of the EC50.
EC50s<1 nM (+++++), EC50s 1 nM-10 nM (++++), EC50s 10 nM-100 nM (+++), EC50s 100 nM-1 uM (++), EC50s 1 uM-10 uM (+); EC50s>10 uM (−), or were not determined (ND).

First: Cc1ccc(C(OCc2cn(CC3CCN(C(=O)C4CCCCC4)CC3)nn2)C(C)(C)C(=O)O)cc1CN1C[C@@H](C)Oc2ccccc2S1(=O)=O (stereo partly drawn) [Example 30, 3-((1-((1-(Cyclohexanecarbonyl)piperidin-4-yl)methyl)-1H-1,2,3-triazol-4-yl)methoxy)-2,2-dimethyl-3-(4-methyl-3-(((R)-4-methyl-1,1-dioxido-3,4-dihydro-2H-benzo[b][1,4,5]oxathiazepin-2-yl)methyl)phenyl)propanoic acid]
Second: CCCN1CCC(Cn2cc(COC(c3ccc(C)c(CN4C[C@@H](C)Oc5ccccc5S4(=O)=O)c3)C(C)(C)C(=O)O)nn2)CC1 (stereo partly drawn) [Example 52, 2,2-Dimethyl-3-(4-methyl-3-(((R)-4-methyl-1,1-dioxido-3,4-dihydro-2H-benzo[b][1,4,5]oxathiazepin-2-yl)methyl)phenyl)-3-((1-((I-propylpiperidin-4-yl)methyl)-1H-1,2,3-triazol-4-yl)methoxy)propanoic acid]
The EC50 of the first is lower: 1 to 10 nM for the first, 100 to 1000 nM for the second. The first is the more potent here.

`Cc1ccc(C(OCc2cn(Cc3cccc(Cn4cc(C(C)C)nn4)c3)nn2)C(C)(C)C(=O)O)cc1CN1C[C@@H](C)Oc2ccccc2S1(=O)=O` (stereo partly drawn) [Example 37, 3-((1-(3-((4-Isopropyl-1H-1,2,3-triazol-1-yl)methyl)benzyl)-1H-1,2,3-triazol-4-yl)methoxy)-2,2-dimethyl-3-(4-methyl-3-(((R)-4-methyl-1,1-dioxido-3,4-dihydro-2H-benzo[b][1,4,5]oxathiazepin-2-yl)methyl)phenyl)propanoic acid] and `CCn1cc(COC(c2ccc(C)c(CN3C[C@@H](C)Oc4ccccc4S3(=O)=O)c2)C(C)(C)C(=O)O)nn1` (stereo partly drawn) [Example 11, 3-((1-Ethyl-1H-1,2,3-triazol-4-yl)methoxy)-2,2-dimethyl-3-(4-methyl-3-(((R)-4-methyl-1,1-dioxido-3,4-dihydro-2H-benzo[b][1,4,5]oxathiazepin-2-yl)methyl)phenyl)propanoic acid] fall in the same range of EC50: 1 to 10 nM for the first, 1 to 10 nM for the second.

First: COCCOCCn1cc(CO[C@H](c2ccc(C)c(CN3C[C@@H](C)Oc4ccccc4S3(=O)=O)c2)C(C)(C)C(=O)O)nn1 [Example 80, (R)-3-((1-(2-(2-methoxyethoxy)ethyl)-1H-1,2,3-triazol-4-yl)methoxy)-2,2-dimethyl-3-(4-methyl-3-(((R)-4-methyl-1,1-dioxido-3,4-dihydro-2H-benzo[b][1,4,5]oxathiazepin-2-yl)methyl)phenyl)propanoic acid]
Second: Cc1ccc(C(OCc2cn(C3COC3)nn2)C(C)(C)C(=O)O)cc1CN1C[C@@H](C)Oc2ccccc2S1(=O)=O (stereo partly drawn) [Example 104, 2,2-Dimethyl-3-(4-methyl-3-(((R)-4-methyl-1,1-dioxido-3,4-dihydro-2H-benzo[b][1,4,5]oxathiazepin-2-yl)methyl)phenyl)-3-((1-(oxetan-3-yl)-1H-1,2,3-triazol-4-yl)methoxy)propanoic acid]
The EC50 of the first is lower: 1 to 10 nM for the first, 10 to 100 nM for the second. The first is the more potent here.

`Cc1ccc(C(OCc2cn(C3CCCCC3)nn2)C(C)(C)C(=O)O)cc1CN1C[C@@H](C)Oc2ccccc2S1(=O)=O` (stereo partly drawn) [Example 17, 3-((1-Cyclohexyl-1H-1,2,3-triazol-4-yl)methoxy)-2,2-dimethyl-3-(4-methyl-3-(((R)-4-methyl-1,1-dioxido-3,4-dihydro-2H-benzo[b][1,4,5]oxathiazepin-2-yl)methyl)phenyl)propanoic acid] and `CCCn1cc(CO[C@H](c2ccc(C)c(CN3CC(C)(C)Oc4ccccc4S3(=O)=O)c2)C(C)(C)C(=O)O)nn1` [Example 78, (R)-3-(3-((4,4-dimethyl-1,1-dioxido-3,4-dihydro-2H-benzo[b][1,4,5]oxathiazepin-2-yl)methyl)-4-methylphenyl)-2,2-dimethyl-3-((1-propyl-1H-1,2,3-triazol-4-yl)methoxy)propanoic acid] fall in the same range of EC50: 1 to 10 nM for the first, 1 to 10 nM for the second.

Work on `COCCn1cc(CO[C@H](c2ccc(C)c(CN(Cc3ccccc3)S(=O)(=O)c3cccc(C(=O)O)c3)c2)C(C)(C)C(=O)O)nn1` [Example 94, (R)-3-(N-benzyl-N-(5-(2-carboxy-1-((1-(2-methoxyethyl)-1H-1,2,3-triazol-4-yl)methoxy)-2-methylpropyl)-2-methylbenzyl)sulfamoyl)benzoic acid] yielded an EC50 of 100 to 1000 nM.
